Results as given in patent US9440980B2, “Remedy for diabetes” (EA Pharma Co., Ltd., priority 2007, dated 2016).

Legend:
isolated adipocytes = experiment: Measurement of glucose uptake activity in isolated rat adipocytes (2-[14C]-deoxy-D-glucose); format: cell-based; conditions: Adipocyte, glucose uptake of insulin (100 nM) = 100%
Method: A male Wistar rat was decapitated and exsanguinated, and then a paratesticular adipose tissue was resected therefrom after laparotomy. The tissue was cut in a KRH (Krebs-Ringer HEPES: 130 mM NaCl, 4.7 mM KCl, 1.2 mM KH2PO4, 1.2 mM MgSO4, 1 mM CaCl2, 25 mM HEPES) containing a BSA (bovine serum albumin), a collagenase (type I) was added thereto, and the resultant was subjected to a digestive treatment for about 40 minutes to obtain isolated adipocytes. The buffer was replaced to remove the collagenase, and a 2% BSA/KRH solution was added thereto, whereby the adipocytes were floated again to obtain a adipocytes suspension.
The glucose uptake activity of a test substance compound was evaluated in accordance with Non-Patent Document 14: Simpson et al., Annual Review of Biochemistry, 55, 1059, (1986). Thus, 200 μl of the adipocytes suspension was dispensed into each polystyrene test tube, 100 μl of a solution containing the test substance compound was added thereto, and the test tube was shaken and incubated at 37° C. for 30 minutes. The glucose uptake activity was evaluated by measuring the amount of 2-[^14C(U)]-deoxy-D-glucose uptaken per unit time. Thus, the 2-[^14C(U)]-deoxy-D-glucose was added to the preincubated adipocytes suspension at the final concentration of 0.5 μCi/sample, and after 5 minutes, cytochalasin B was added thereto at the final concentration of 10 μM to stop the glucose uptake. Dinonyl phthalate was superposed over the solution, the resultant was centrifuged to separate the fat cells from the buffer, and the amount of the 2-[^14C(U)]-deoxy-D-glucose contained in the fat cell layer was measured by a liquid scintillation counter, whereby the uptaken glucose amount was determined. The glucose uptake of insulin (100 nM) was evaluated in the same manner and considered to be 100%, and thus the EC50 value of each compound was obtained.

[1] = tested on: PI3-kinase β (p110β/p85α); experiment: PI3-kinase subtype activity with or without Gβ1γ2-Myc (PIP3 production, 32P-ATP, TLC); format: biochemical
Method: The subtypes α (PI3 Kinase (p110α/p85α), active, Upstate, Product No. 14-602), β (PI3 Kinase (p110β/p85α), active, Upstate, Product No. 14-603), γ ((PI3KγHis-GST (Phosphoinositide 3-kinase p110γHis/p101GST) human, Recombinant, Sf9 insect cell, JENA Bioscience, Product No. PR-347S), and δ (PI3 Kinase (p110δ/p85α), active, Upstate, Product No. 14-604) were used as the PI3-kinase subtypes respectively. A PI3K buffer (40 mM HEPES-Na (pH 7.4), 120 mM NaCl, 1 mM EGTA, 1 mM dithiothreitol, 1 mM β glycerophosphoric acid, 10 mM MgCl2, 0.1% BSA) was used as a buffer in the following reactions.
To the lipid micelle solution (125 μl) was added the purified Gβ1γ2-Myc solution (250 μl, 10 μg/ml) obtained in (1), and the resultant solution was stirred and left in ice for 10 minutes. 30 μl of the lipid micelle solution containing the Gβγ2-Myc was dispensed into 1.5-ml microtubes, and to these were added 5 μl of a compound solution and 5 μl of each PI3-kinase subtype (α, β, and δ: 5 μg/ml, γ: 2.5 μg/ml) successively. The mixture was left at room temperature for 10 minutes, and a 40-μM ATP solution (10 μl) containing ^32P-γ-ATP was added thereto, to initiate a reaction. The amount of the ^32P-γ-ATP added was about 300 kBq per one reaction. The reaction was carried out at room temperature for 30 minutes, and stopped by adding 80 μl of 1N HCl at ice temperature. 300 μl of a chloroform:methanol (1:1) solution was added thereto, the mixture was stirred to extract the lipid, and the organic layer was washed with 80 μl of 1N HCl twice. The solvent was removed from the residual organic layer under reduced pressure, the residue was dissolved in 20 μl of a chloroform:methanol (4:1) solution, the entire solution was spotted on a TLC plate (Merck, Kieselgel 60), and a TLC was carried out for about 4 hours using a developer of acetic acid:water:1-propanol (4:31:65). The TLC plate was treated with oxalic acid beforehand such that the plate was sufficiently developed by a 40% methanol solution containing 1% of potassium oxalate, dried overnight, and activated at 110° C. for 30 minutes. After the developing, the TLC plate was sufficiently dried and exposed using an imaging plate, and data were obtained by BAS2000 (FUJIFILM Corporation). The data were analyzed by a software of BAS2000, the analysis region was controlled such that spots of phosphatidylinositol-[3,4,5]-trisphosphate (PIP3) in the TLC lanes have the same areas, and the energy (PSL) corresponding to each radioactivity was quantified in the region.
A lipid micelle solution was prepared in the same manner as (2). […] The reaction was carried out at room temperature for 15 minutes, the resultant was treated in the same manner as (2), and the amount of the produced PIP3 was measured.

[2] = target: T1, binding between the Gβ and the p110β (PI3-kinase β) (Homo sapiens, UniProt P42338+P62873); experiment: Binding of Gβ1γ2-Myc to PI3-kinase β (immunoprecipitation, Western blot); conditions: Compound 1 (0.1 μM) and Compound 6 (1 mM) approximately the same effect; FIG. 15
T1 construct: purchased Upstate 14-603
T1 sequence (P42338 whole entry): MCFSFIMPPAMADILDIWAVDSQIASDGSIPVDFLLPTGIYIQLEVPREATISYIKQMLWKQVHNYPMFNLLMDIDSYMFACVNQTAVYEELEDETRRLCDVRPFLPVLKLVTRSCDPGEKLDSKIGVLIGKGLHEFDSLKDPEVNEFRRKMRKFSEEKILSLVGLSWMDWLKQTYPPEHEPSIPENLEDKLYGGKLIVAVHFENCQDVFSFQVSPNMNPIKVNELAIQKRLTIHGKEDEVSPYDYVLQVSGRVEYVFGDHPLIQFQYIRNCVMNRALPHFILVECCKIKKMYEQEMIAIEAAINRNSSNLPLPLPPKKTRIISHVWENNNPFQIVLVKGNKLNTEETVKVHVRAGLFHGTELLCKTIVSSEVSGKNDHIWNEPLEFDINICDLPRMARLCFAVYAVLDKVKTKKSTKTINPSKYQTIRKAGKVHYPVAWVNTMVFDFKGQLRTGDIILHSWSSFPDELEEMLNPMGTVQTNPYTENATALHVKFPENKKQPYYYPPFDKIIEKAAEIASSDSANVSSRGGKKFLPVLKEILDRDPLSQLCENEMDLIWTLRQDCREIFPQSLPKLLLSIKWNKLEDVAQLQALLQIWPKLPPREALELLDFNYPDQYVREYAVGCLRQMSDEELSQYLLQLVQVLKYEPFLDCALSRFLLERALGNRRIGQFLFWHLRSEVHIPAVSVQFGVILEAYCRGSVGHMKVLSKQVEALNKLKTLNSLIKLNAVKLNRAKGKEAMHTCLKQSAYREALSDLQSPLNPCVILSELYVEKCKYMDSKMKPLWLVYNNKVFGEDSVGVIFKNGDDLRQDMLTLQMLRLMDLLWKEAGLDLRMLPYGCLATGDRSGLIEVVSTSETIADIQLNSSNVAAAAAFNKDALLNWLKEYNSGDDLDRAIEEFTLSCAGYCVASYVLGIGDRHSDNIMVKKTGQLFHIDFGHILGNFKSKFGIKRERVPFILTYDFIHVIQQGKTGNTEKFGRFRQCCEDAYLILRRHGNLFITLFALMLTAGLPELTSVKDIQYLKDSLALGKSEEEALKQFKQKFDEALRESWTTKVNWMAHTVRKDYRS
T1 sequence (P27986 whole entry partner): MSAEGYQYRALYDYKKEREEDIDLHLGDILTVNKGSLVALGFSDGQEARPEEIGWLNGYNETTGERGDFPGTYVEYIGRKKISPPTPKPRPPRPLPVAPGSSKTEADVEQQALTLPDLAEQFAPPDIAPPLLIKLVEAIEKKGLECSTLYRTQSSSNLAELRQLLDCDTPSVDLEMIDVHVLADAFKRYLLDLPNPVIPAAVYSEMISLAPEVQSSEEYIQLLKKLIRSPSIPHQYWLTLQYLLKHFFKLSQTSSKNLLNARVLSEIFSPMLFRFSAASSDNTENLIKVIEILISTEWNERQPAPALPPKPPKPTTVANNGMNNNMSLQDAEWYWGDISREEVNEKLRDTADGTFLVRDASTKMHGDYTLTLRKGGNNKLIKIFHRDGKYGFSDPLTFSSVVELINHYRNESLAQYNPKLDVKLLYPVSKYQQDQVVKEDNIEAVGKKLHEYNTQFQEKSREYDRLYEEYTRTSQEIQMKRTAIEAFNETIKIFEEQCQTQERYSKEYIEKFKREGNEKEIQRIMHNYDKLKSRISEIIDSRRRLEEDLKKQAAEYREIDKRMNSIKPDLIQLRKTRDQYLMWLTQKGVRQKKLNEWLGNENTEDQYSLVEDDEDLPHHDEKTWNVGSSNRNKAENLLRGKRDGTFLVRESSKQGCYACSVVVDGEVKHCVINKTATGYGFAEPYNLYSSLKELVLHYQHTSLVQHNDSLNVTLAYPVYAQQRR
T1 sequence (P62873 whole entry): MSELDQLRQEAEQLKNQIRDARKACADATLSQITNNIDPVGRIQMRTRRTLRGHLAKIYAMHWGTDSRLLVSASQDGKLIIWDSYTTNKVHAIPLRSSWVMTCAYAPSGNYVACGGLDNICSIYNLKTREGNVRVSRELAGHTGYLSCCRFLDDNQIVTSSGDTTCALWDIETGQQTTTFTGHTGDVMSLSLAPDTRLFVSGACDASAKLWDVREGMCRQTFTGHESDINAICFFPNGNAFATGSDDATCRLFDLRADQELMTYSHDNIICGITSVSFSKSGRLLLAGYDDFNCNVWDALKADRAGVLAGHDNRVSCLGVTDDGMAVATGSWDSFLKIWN
T1 sequence (P59768 with tags, fused parts or gaps partner limits assumed): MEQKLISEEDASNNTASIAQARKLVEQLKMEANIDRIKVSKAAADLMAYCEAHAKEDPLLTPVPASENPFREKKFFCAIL
Method: 300 μl of a PI3K buffer (40 mM HEPES-Na (pH 7.4), 120 mM NaCl, 1 mM EGTA, 1 mM dithiothreitol, 1 mM β glycerophosphoric acid, 10 mM MgCl2, 0.1% BSA) was added to a 1.5-ml microtube, and to this were added 200 ng of the Gβ1γ2-Myc obtained in Example 20 (1), 160 ng of PI3-kinase β (PI3 Kinase (p110β/p85α), active, Upstate, Product No. 14-603), and a test substance. The mixture was left at room temperature for 30 minutes, to this was added 10 μl of a solution of an anti-cMyc antibody (9E10, 200 μg/ml, SantaCruz, Product No. sc-40), and the resulting mixture was left at room temperature for 2 hours. To the solution was added 25 μl of anti-mouse IgG agarose beads (American Qualex, Product No. 61060) which were washed with the same buffer, stirred at room temperature for 1 hour and centrifuged (10000 rpm, 1 minute) to remove the supernatant. Furthermore, the beads were washed with 0.5 ml of the buffer 3 times, eluted in a boiling SDS-containing buffer, and subjected to an SDS polyacrylamide electrophoresis. Then, the amounts of the p110β and the Gβ adsorbed to the beads were measured by a Western blot method using an anti-p110β antibody (SantaCruz, Product No. sc-602) and an anti-Gβ antibody (SantaCruz, Product No. sc-261).

[3] = target: T2, PI3-kinase β in the presence of Gβ1γ2-His (Homo sapiens, UniProt P42338+P62873); experiment: PI3-kinase β activation assay in the presence of Gβ1γ2-His (scintillation counting); format: biochemical; conditions: FIG. 17
T2 construct: purchased Upstate 14-603
T2 sequence (P42338 whole entry): as the sequence (P42338 whole entry) above
T2 sequence (P27986 whole entry partner): as the sequence (P27986 whole entry partner) above
T2 sequence (P62873 whole entry): as the sequence (P62873 whole entry) above
T2 sequence (P59768 with tags, fused parts or gaps partner limits assumed): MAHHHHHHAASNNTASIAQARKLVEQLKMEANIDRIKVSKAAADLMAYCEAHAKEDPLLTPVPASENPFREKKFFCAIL
Method: A lipid micelle solution was prepared in accordance with a method described in Example 24 (2), to this was added the Gβ1γ2-His prepared in (1) at a concentration of 13.3 μg/ml, and the mixture was left on ice for 10 minutes. To 30 μl of the resultant solution were added 5 μl of a solution containing Compound 1 or 6 and 5 μl of a PI3-kinase β solution (5 μg/ml) successively. A 40 μM ATP solution (10 μl) containing ^32P-γ-ATP was added thereto, and a reaction was carried out at room temperature for 2 hours. The reaction was stopped by addition of 80 μl of 1N HCl, and the lipid was extracted with 300 μl of chloroform:methanol (1:1). The organic layer was washed with 80 μl of 1N HCl twice, 10 ml of a liquid scintillator (Hionic Fluor) was added thereto, and the […] was measured by a liquid scintillation counter.

| Structure (SMILES) | EC50 (isolated adipocytes) | effect on PI3-kinase β activity ([1]; 30 μM, presence of Gβ1γ2-Myc, FIG. 13) | effect on PI3-kinase β activity ([1]; absence of the Gβ (Gβ1γ2-Myc), FIG. 14) | effect of enhancing the enzymatic activity of the PI3-kinase β ([1]; presence of Gβ1γ2-Myc, concentration-dependent, 0.1, 1, and 10 μM, FIG. 14) | effect on the binding between the Gβ and the p110β (PI3-kinase β) [2] | PI3-kinase activity compared with the case without compound ([3]; 0.1 μM, 10 μM) | effect of enhancing the enzymatic activity of the PI3-kinase β ([1]; presence of Gβ1γ2-Myc, concentration-dependent, 100 μM and 1 mM, FIG. 14) | PI3-kinase activity compared with the case without compound ([3]; 100 μM) |
| --- | --- | --- | --- | --- | --- | --- | --- | --- |
| O=C1NCC2=C1[C@@H](c1cccc3ccsc13)N(C(=O)CCc1ccccn1)[C@@H]1CCCC[C@H]1N2 [Compound 1] | 8 nM | significant activating effect only on the PI3-kinase β | no effects | significant effect of enhancing the enzymatic activity | enhanced | clearly increased | – | – |
| O=C1NCC2=C1[C@@H](c1ccccc1)N(C(=O)CO)[C@@H]1CCCC[C@H]1N2 [Compound 6] | 4000 nM | – | – | – | enhanced | – | significant effect of enhancing the enzymatic activity | clearly increased |
